MIC data for eight molecules are collected here from ChEMBL document CHEMBL6134868, “Novel Aryl Sulfonium Modification on Vancomycin to Tackle MRSA and VRE In Vitro and In Vivo through Dual Enhanced Cell-Wall and Membrane Inhibition” (J Med Chem, 2025).

≈ marks a conversion by molar mass, not a printed value.

Common to all, as to assay type: functional
Common to all, as to conditions: time 16-24 hrs

The test system of assay [1] is Staphylococcus aureus. Description: Antibacterial activity against vancomycin-intermediate Staphylococcus aureus Mu50 incubated for 16 to 24 hrs by broth microdilution assay.
Assay [2] concerns Staphylococcus aureus. The experiment in a line: Antibacterial activity against methicillin-resistant Staphylococcus aureus USA300 LAC incubated for 16 to 24 hrs by broth microdilution assay.
Assay [3] deals with Enterococcus faecium. Description: Antibacterial activity against vancomycin-resistant Enterococcus faecium Efm-HS-0649 harboring VanA phenotype incubated for 16 to 24 hrs by broth microdilution assay.
Assay [4] relates to Enterococcus faecium. The experiment in a line: Antibacterial activity against vancomycin-resistant Enterococcus faecium Efm-HS-08257 harboring VanM phenotype incubated for 16 to 24 hrs by broth microdilution assay.
In assay [5] the test system is Enterococcus faecium. Description: Antibacterial activity against vancomycin-resistant Enterococcus faecium Efm-HS-vb01 harboring VanB phenotype incubated for 16 to 24 hrs by broth microdilution assay.
The subject of assay [6] is Enterococcus faecium. The experiment in a line: Antibacterial activity against vancomycin-resistant Enterococcus faecium Efm-HS-vb02 harboring VanB phenotype incubated for 16 to 24 hrs by broth microdilution assay.
Another assay concerns Escherichia coli. The experiment in a line: Antibacterial activity against Escherichia coli AB1157 incubated for 16 to 24 hrs by broth microdilution assay.
Assay [7] concerns Acinetobacter baumannii. Description: Antibacterial activity against carbapenem-resistant Acinetobacter baumannii CRAB-1 clinical isolate incubated for 16 to 24 hrs by broth microdilution assay.
Assay [8] deals with Acinetobacter baumannii. Description: Antibacterial activity against Acinetobacter baumannii ATCC19606 incubated for 16 to 24 hrs by broth microdilution assay.
The subject of a further assay is Pseudomonas aeruginosa. The experiment in a line: Antibacterial activity against Pseudomonas aeruginosa PAO1 incubated for 16 to 24 hrs by broth microdilution assay.
The next assay has as its system Klebsiella pneumoniae. Description: Antibacterial activity against Klebsiella pneumoniae KP-1 incubated for 16 to 24 hrs by broth microdilution assay.

For `CN[C@H](CC(C)C)C(=O)N[C@H]1C(=O)N[C@@H](CC(N)=O)C(=O)N[C@H]2C(=O)N[C@H]3C(=O)N[C@H](C(=O)N[C@H](C(=O)NCCC[S+](C)CC(O)COc4ccccc4Cl)c4cc(O)cc(O)c4-c4cc3ccc4O)[C@H](O)c3ccc(c(Cl)c3)Oc3cc2cc(c3O[C@@H]2O[C@H](CO)[C@@H](O)[C@H](O)[C@H]2O[C@H]2C[C@](C)(N)[C@H](O)[C@H](C)O2)Oc2ccc(cc2Cl)[C@H]1O.O=C([O-])C(F)(F)F` (stereo partly drawn), the MIC with Staphylococcus aureus [1] stood at 1 µg/mL; with Staphylococcus aureus [2], 0.25 µg/mL; in the assay with Enterococcus faecium [3] it was 16 µg/mL; in the assay with Enterococcus faecium [4], 8 µg/mL; against Enterococcus faecium [5] it was 8 µg/mL; with Enterococcus faecium [6] it was 2 µg/mL. For the same molecule, the MIC is 16 µg/mL against Escherichia coli; > 128 µg/mL against Acinetobacter baumannii [7]; 64 µg/mL with Acinetobacter baumannii [8]; > 128 µg/mL with Pseudomonas aeruginosa; > 128 µg/mL with Klebsiella pneumoniae.

For `CN[C@H](CC(C)C)C(=O)N[C@H]1C(=O)N[C@@H](CC(N)=O)C(=O)N[C@H]2C(=O)N[C@H]3C(=O)N[C@H](C(=O)N[C@H](C(=O)NCCC[S+](C)CC(O)COc4ccc(C(C)(C)C)cc4)c4cc(O)cc(O)c4-c4cc3ccc4O)[C@H](O)c3ccc(c(Cl)c3)Oc3cc2cc(c3O[C@@H]2O[C@H](CO)[C@@H](O)[C@H](O)[C@H]2O[C@H]2C[C@](C)(N)[C@H](O)[C@H](C)O2)Oc2ccc(cc2Cl)[C@H]1O.O=C([O-])C(F)(F)F` (stereo partly drawn), the MIC in the assay with Staphylococcus aureus [1] was 1 µg/mL; in the assay on Staphylococcus aureus [2], ≤ 0.063 µg/mL; in the assay on Enterococcus faecium [3] it was 32 µg/mL; in the assay on Enterococcus faecium [4] it was 8 µg/mL; in the assay on Enterococcus faecium [5], 16 µg/mL; in the assay with Enterococcus faecium [6] it was 4 µg/mL. The MIC against Escherichia coli was 32 µg/mL; in the assay on Acinetobacter baumannii [7] it was 64 µg/mL; against Acinetobacter baumannii [8], 32 µg/mL; in the assay with Pseudomonas aeruginosa, > 128 µg/mL; with Klebsiella pneumoniae, > 128 µg/mL.

With `CN[C@H](CC(C)C)C(=O)N[C@H]1C(=O)N[C@@H](CC(N)=O)C(=O)N[C@H]2C(=O)N[C@H]3C(=O)N[C@H](C(=O)N[C@H](C(=O)O)c4cc(O)c(CNCCC[S+](C)CC(O)COc5ccccc5)c(O)c4-c4cc3ccc4O)[C@H](O)c3ccc(c(Cl)c3)Oc3cc2cc(c3O[C@@H]2O[C@H](CO)[C@@H](O)[C@H](O)[C@H]2O[C@H]2C[C@](C)(N)[C@H](O)[C@H](C)O2)Oc2ccc(cc2Cl)[C@H]1O.O=C([O-])C(F)(F)F` (stereo partly drawn), the MIC was 4 µg/mL in the assay with Staphylococcus aureus [1]; 0.5 µg/mL in the assay on Staphylococcus aureus [2]; 128 µg/mL against Enterococcus faecium [3]; 64 µg/mL in the assay on Enterococcus faecium [4]; 2 µg/mL with Enterococcus faecium [5]; 4 µg/mL in the assay on Enterococcus faecium [6]. The MIC is 32 µg/mL in the assay on Escherichia coli; 128 µg/mL in the assay with Acinetobacter baumannii [7]; 128 µg/mL in the assay on Acinetobacter baumannii [8]; > 128 µg/mL against Pseudomonas aeruginosa; > 128 µg/mL against Klebsiella pneumoniae.

As to `CC(C)C[C@H](C(=O)N[C@H]1C(=O)N[C@@H](CC(N)=O)C(=O)N[C@H]2C(=O)N[C@H]3C(=O)N[C@H](C(=O)N[C@H](C(=O)O)c4cc(O)cc(O)c4-c4cc3ccc4O)[C@H](O)c3ccc(c(Cl)c3)Oc3cc2cc(c3O[C@@H]2O[C@H](CO)[C@@H](O)[C@H](O)[C@H]2O[C@H]2C[C@](C)(N)[C@H](O)[C@H](C)O2)Oc2ccc(cc2Cl)[C@H]1O)N(C)CCC[S+](C)C[C@@H](O)COc1ccccc1.O=C([O-])C(F)(F)F` (stereo partly drawn), the MIC with Staphylococcus aureus [1] is 8 µg/mL; against Staphylococcus aureus [2], 1 µg/mL; in the assay on Enterococcus faecium [3], > 128 µg/mL; in the assay with Enterococcus faecium [4], 128 µg/mL; against Enterococcus faecium [5], 64 µg/mL; against Enterococcus faecium [6], 32 µg/mL. Besides, the MIC against Escherichia coli, against Acinetobacter baumannii [7], against Acinetobacter baumannii [8], in the assay on Pseudomonas aeruginosa and in the assay with Klebsiella pneumoniae was > 128 µg/mL throughout.

For the molecule `CN[C@H](CC(C)C)C(=O)N[C@H]1C(=O)N[C@@H](CC(N)=O)C(=O)N[C@H]2C(=O)N[C@H]3C(=O)N[C@H](C(=O)N[C@H](C(=O)NCCC[S+](C)CC(O)CCc4ccccc4)c4cc(O)cc(O)c4-c4cc3ccc4O)[C@H](O)c3ccc(c(Cl)c3)Oc3cc2cc(c3O[C@@H]2O[C@H](CO)[C@@H](O)[C@H](O)[C@H]2O[C@H]2C[C@](C)(N)[C@H](O)[C@H](C)O2)Oc2ccc(cc2Cl)[C@H]1O.O=C([O-])C(F)(F)F` (stereo partly drawn), the MIC in the assay on Staphylococcus aureus [1] turned out to be 2 µg/mL; against Staphylococcus aureus [2], 0.5 µg/mL; against Enterococcus faecium [3] it was 32 µg/mL; in the assay with Enterococcus faecium [4] it was 32 µg/mL; against Enterococcus faecium [5], 32 µg/mL; with Enterococcus faecium [6], 2 µg/mL. The MIC against Escherichia coli was 32 µg/mL; in the assay on Acinetobacter baumannii [7], > 128 µg/mL; against Acinetobacter baumannii [8], > 128 µg/mL; in the assay with Pseudomonas aeruginosa it was 128 µg/mL; in the assay on Klebsiella pneumoniae it was > 128 µg/mL.

`CN[C@H](CC(C)C)C(=O)N[C@H]1C(=O)N[C@@H](CC(N)=O)C(=O)N[C@H]2C(=O)N[C@H]3C(=O)N[C@H](C(=O)N[C@H](C(=O)O)c4cc(O)c(CNCCC[S+](C)CC(O)COc5ccc(-c6ccc(Cl)cc6)cc5)c(O)c4-c4cc3ccc4O)[C@H](O)c3ccc(c(Cl)c3)Oc3cc2cc(c3O[C@@H]2O[C@H](CO)[C@@H](O)[C@H](O)[C@H]2O[C@H]2C[C@](C)(N)[C@H](O)[C@H](C)O2)Oc2ccc(cc2Cl)[C@H]1O.O=C([O-])C(F)(F)F` (stereo partly drawn): the MIC in the assay with Staphylococcus aureus [1] is ≤ 0.063 µg/mL; with Staphylococcus aureus [2] it was ≤ 0.063 µg/mL; in the assay with Enterococcus faecium [3] it was 0.5 µg/mL; against Enterococcus faecium [4], 2 µg/mL; with Enterococcus faecium [5] it was ≤ 0.063 µg/mL; with Enterococcus faecium [6], ≤ 0.063 µg/mL. In addition, the MIC against Escherichia coli is 8 µg/mL; against Acinetobacter baumannii [7] it was 16 µg/mL; in the assay on Acinetobacter baumannii [8], 16 µg/mL; against Pseudomonas aeruginosa, > 128 µg/mL; against Klebsiella pneumoniae, 128 µg/mL.

On to `CN[C@H](CC(C)C)C(=O)N[C@H]1C(=O)N[C@@H](CC(N)=O)C(=O)N[C@H]2C(=O)N[C@H]3C(=O)N[C@H](C(=O)N[C@H](C(=O)NCCCSCC(O)COc4ccc(-c5ccc(C(F)(F)F)cc5)cc4)c4cc(O)cc(O)c4-c4cc3ccc4O)[C@H](O)c3ccc(c(Cl)c3)Oc3cc2cc(c3O[C@@H]2O[C@H](CO)[C@@H](O)[C@H](O)[C@H]2O[C@H]2C[C@](C)(N)[C@H](O)[C@H](C)O2)Oc2ccc(cc2Cl)[C@H]1O` (stereo partly drawn), for which the MIC was determined as 1 µg/mL (≈ 0.55 µM) in the assay on Staphylococcus aureus [1]; 1 µg/mL (≈ 0.55 µM) against Staphylococcus aureus [2]; 4 µg/mL (≈ 2.2 µM) in the assay on Enterococcus faecium [3]; 2 µg/mL (≈ 1.1 µM) against Enterococcus faecium [4]; 4 µg/mL (≈ 2.2 µM) with Enterococcus faecium [5]; 2 µg/mL (≈ 1.1 µM) with Enterococcus faecium [6]. Also, the MIC in the assay with Escherichia coli, against Acinetobacter baumannii [7], in the assay with Acinetobacter baumannii [8], in the assay on Pseudomonas aeruginosa and with Klebsiella pneumoniae was > 128 µg/mL throughout.

Consider `CN[C@H](CC(C)C)C(=O)N[C@H]1C(=O)N[C@@H](CC(N)=O)C(=O)N[C@H]2C(=O)N[C@H]3C(=O)N[C@H](C(=O)N[C@H](C(=O)O)c4cc(O)c(CNCCC[S+](C)C[C@@H](O)COc5ccccc5)c(O)c4-c4cc3ccc4O)[C@H](O)c3ccc(c(Cl)c3)Oc3cc2cc(c3O[C@@H]2O[C@H](CO)[C@@H](O)[C@H](O)[C@H]2O[C@H]2C[C@](C)(N)[C@H](O)[C@H](C)O2)Oc2ccc(cc2Cl)[C@H]1O.O=C([O-])C(F)(F)F` (stereo partly drawn), for which the MIC in the assay with Staphylococcus aureus [1] was 4 µg/mL; against Staphylococcus aureus [2], 0.5 µg/mL; in the assay on Enterococcus faecium [3], > 128 µg/mL; in the assay on Enterococcus faecium [4], 128 µg/mL; in the assay on Enterococcus faecium [5], 2 µg/mL; in the assay with Enterococcus faecium [6], 4 µg/mL. Moreover, the MIC is 16 µg/mL in the assay with Escherichia coli; > 128 µg/mL in the assay on Acinetobacter baumannii [7]; 128 µg/mL in the assay with Acinetobacter baumannii [8]; > 128 µg/mL in the assay with Pseudomonas aeruginosa; > 128 µg/mL with Klebsiella pneumoniae.
